Among the data in patent publication US8658642B2 (Axikin Pharmaceuticals, Inc., priority 2009, dated 2014) are Ki values, retold here.

The target in the assay is T1, CCR3 (Homo sapiens, UniProt P51677).
T1 sequence (P51677 1-355): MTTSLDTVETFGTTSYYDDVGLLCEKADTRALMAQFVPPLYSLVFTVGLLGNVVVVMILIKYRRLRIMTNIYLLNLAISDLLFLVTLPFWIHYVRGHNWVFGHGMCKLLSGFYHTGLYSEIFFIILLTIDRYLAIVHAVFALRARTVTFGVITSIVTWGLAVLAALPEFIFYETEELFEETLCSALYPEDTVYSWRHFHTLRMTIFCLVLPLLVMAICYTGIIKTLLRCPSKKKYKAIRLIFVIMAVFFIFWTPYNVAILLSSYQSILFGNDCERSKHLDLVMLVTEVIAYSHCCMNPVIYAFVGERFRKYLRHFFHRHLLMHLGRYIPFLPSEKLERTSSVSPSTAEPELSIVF
Nature of the assay: CCR3 receptor binding assay ([125I]-labeled human eotaxin/CCL11 displacement on cells). To be noted: 0.1 nM [125I]-labeled human eotaxin/CCL11, 2×10^5 cells/well, 60 min at room temperature. As to the method: CCR3 Receptor Binding Assay
Cells were washed once with PBS and resuspended in a binding buffer (25 mM HEPES pH 7.6, 5 mM MgCl2, 1 mM CaCl2, 0.5% BSA, 0.1% NaN3). […] of cell suspension (2×10^5 cells/well) and 0.1 nM [^125I]-labeled human eotaxin/CCL11 (2000 Ci/mmol specific activity) were mixed in a 96-well U-bottom polypropylene plate, and incubated for 60 min at room temperature for the binding reaction. The cell suspension was then transferred to a filtration plate (#MAFB, Millipore), and washed 3 times with the binding buffer containing 0.5 M NaCl, scintillant added, and the radioactivity was counted on a TopCount (Packard). For the determination of non-specific binding, the cell suspension and [^125I]-labeled human eotaxin/CCL11 were incubated in the presence of 500 nM of unlabeled human eotaxin/CCL11. See, lino et al., “Molecular cloning and functional characterization of cynomolgus monkey (Macaca fascicularis) CC chemokine receptor, CCR3,” Cytokine 2002, 19, 276-286.
By Ki is commonly meant the equilibrium dissociation constant of an inhibitor or competing ligand from its target. Low readings indicate a stronger hold on the target, high ones a looser hold on the target. The compound `Cc1ccc(S(=O)(=O)N2CCN(S(=O)(=O)c3cc(C#N)ccc3Oc3cc(Cl)cc(Cl)c3)CC2)cc1` [Compound 77, 4-(3,5-Dichlorophenoxy)-3-(4-tosylpiperazin-1-ylsulfonyl)benzonitrile] had a Ki of no more than 0.05 µM.

As to `N#Cc1ccc(Oc2cc(Cl)cc(Cl)c2)c(S(=O)(=O)N2CCN(C(=O)c3ccc(Cl)cc3)CC2)c1` [Compound 78, 3-(4-(4-Chlorobenzoyl)piperazin-1-ylsulfonyl)-4-(3,5-dichlorophenoxy)benzonitrile], the Ki was 0.05 to 0.5 µM. The compound `Cc1cccc(C(=O)N2CCN(S(=O)(=O)c3cc(C#N)ccc3Oc3cc(Cl)cc(Cl)c3)CC2)c1` [Compound 79, 4-(3,5-Dichlorophenoxy)-3-(4-(3-methylbenzoyl)piperazin-1-ylsulfonyl)benzonitrile] yielded a Ki of no more than 0.05 µM. The same measure for `CC(C)NC(=O)N1CCN(S(=O)(=O)c2cc(C#N)ccc2Oc2cc(Cl)cc(Cl)c2)CC1` [Compound 80, 4-(5-Cyano-2-(3,5-dichlorophenoxy)phenylsulfonyl)-N-isopropylpiperazine-1-carboxamide]: 0.5 to 5 µM; for `N#Cc1ccc(Oc2cc(Cl)cc(Cl)c2)c(S(=O)(=O)N2CCN(C(=O)c3cccc(Cl)c3)CC2)c1` [Compound 81, 3-(4-(3-Chlorobenzoyl)piperazin-1-ylsulfonyl)-4-(3,5-dichlorophenoxy)benzonitrile]: 0.5 to 5 µM; for `Cc1ccc(C(=O)N2CCN(S(=O)(=O)c3cc(C#N)ccc3Oc3cc(Cl)cc(Cl)c3)CC2)cc1` [Compound 82, 4-(3,5-Dichlorophenoxy)-3-(4-(4-methylbenzoyl)piperazin-1-ylsulfonyl)benzonitrile]: 0.5 to 5 µM. With `Cc1ccccc1C(=O)N1CCN(S(=O)(=O)c2cc(C#N)ccc2Oc2cc(Cl)cc(Cl)c2)CC1` [Compound 83, 4-(3,5-Dichlorophenoxy)-3-(4-(2-methylbenzoyl)piperazin-1-ylsulfonyl)benzonitrile] the figure was 0.5 to 5 µM. With `N#Cc1ccc(Oc2cc(Cl)cc(Cl)c2)c(S(=O)(=O)N2CCN(C(=O)c3ccccc3Cl)CC2)c1` [Compound 84, 3-(4-(2-Chlorobenzoyl)piperazin-1-ylsulfonyl)-4-(3,5-dichlorophenoxy)benzonitrile] the figure was 0.5 to 5 µM; with `N#Cc1ccc(Oc2cc(Cl)cc(Cl)c2)c(S(=O)(=O)N2CCN(C(=O)c3ccccc3F)CC2)c1` [Compound 85, 4-(3,5-Dichlorophenoxy)-3-(4-(2-fluorobenzoyl)piperazin-1-ylsulfonyl)benzonitrile], 0.5 to 5 µM; with `N#Cc1ccc(Oc2cc(Cl)cc(Cl)c2)c(S(=O)(=O)N2CCN(C(=O)c3cccc(F)c3)CC2)c1` [Compound 86, 4-(3,5-Dichlorophenoxy)-3-(4-(3-fluorobenzoyl)piperazin-1-ylsulfonyl)benzonitrile], greater than 5 µM.

On to `N#Cc1ccc(Oc2cc(Cl)cc(Cl)c2)c(S(=O)(=O)N2CCN(C(=O)c3ccc(F)cc3)CC2)c1` [Compound 87, 4-(3,5-Dichlorophenoxy)-3-(4-(4-fluorobenzoyl)piperazin-1-ylsulfonyl)benzonitrile], for which the Ki was greater than 5 µM. `Cc1cc(C)cc(Sc2ccc(C#N)cc2S(=O)(=O)N2CCN(C(=O)c3ccc(C(F)(F)F)cc3)CC2)c1` [Compound 88, 4-(3,5-Dimethylphenylthio)-3-(4-(4-(trifluoromethyl)benzoyl)piperazin-1-ylsulfonyl)benzonitrile] displayed a Ki greater than 5 µM. For `Cc1cc(C)cc(Sc2ccc(C#N)cc2S(=O)(=O)N2CCN(C(=O)c3ccccc3)CC2)c1` [Compound 89, 3-(4-Benzoylpiperazin-1-ylsulfonyl)-4-(3,5-dimethylphenylthio)benzonitrile], the Ki was in the range of 0.05 to 0.5 µM.

In the case of `Cc1ccc(C(=O)N2CCN(S(=O)(=O)c3cc(C#N)ccc3Sc3cc(C)cc(C)c3)CC2)cc1` [Compound 90, 4-(3,5-Dimethylphenylthio)-3-(4-(4-methylbenzoyl)piperazin-1-ylsulfonyl)benzonitrile], the Ki was in the range of 0.05 to 0.5 µM. As to `Cc1cc(C)cc(Sc2ccc(C#N)cc2S(=O)(=O)N2CCN(C(=O)c3cccc(C)c3)CC2)c1` [Compound 91, 4-(3,5-Dimethylphenylthio)-3-(4-(3-methylbenzoyl)piperazin-1-ylsulfonyl)benzonitrile], the Ki is 0.05 to 0.5 µM. The same measure for `Cc1cc(C)cc(Sc2ccc(C#N)cc2S(=O)(=O)N2CCN(C(=O)c3ccccc3C)CC2)c1` [Compound 92, 4-(3,5-Dimethylphenylthio)-3-(4-(2-methylbenzoyl)piperazin-1-ylsulfonyl)benzonitrile]: greater than 5 µM; for `Cc1cc(C)cc(Sc2ccc(C#N)cc2S(=O)(=O)N2CCN(C(=O)Nc3cccc(F)c3)CC2)c1` [Compound 93]: 0.05 to 0.5 µM; for `CC(C)NC(=S)N1CCN(S(=O)(=O)c2cc(C#N)ccc2Oc2cc(Cl)cc(Cl)c2)CC1` [Compound 95]: 0.05 to 0.5 µM. The compound `N#Cc1ccc(Oc2cc(Cl)cc(Cl)c2)c(S(=O)(=O)N2CCN(C(=O)Oc3ccccc3)CC2)c1` [Compound 96] displayed a Ki of 0.5 to 5 µM. `N#Cc1ccc(Oc2cc(Cl)cc(Cl)c2)c(S(=O)(=O)N2CCN(C(=O)NCc3ccccc3)CC2)c1` [Compound 97] had a Ki of 0.05 to 0.5 µM. Regarding `N#Cc1ccc(Sc2cc(Cl)cc(Cl)c2)c(S(=O)(=O)N2CCN(C(=O)c3ccc(C(F)(F)F)cc3)CC2)c1` [Compound 98], the Ki is greater than 5 µM. As to `N#Cc1ccc(Sc2cc(Cl)cc(Cl)c2)c(S(=O)(=O)N2CCN(C(=O)c3ccccc3)CC2)c1` [Compound 99], the Ki was greater than 5 µM.

Turning to `CC(C)NC(=O)N1CCN(S(=O)(=O)c2cc(C#N)ccc2Sc2cc(Cl)cc(Cl)c2)CC1` [Compound 100], the inhibitory constant (Ki) is greater than 5 µM. For the compound `CC(C)NC(=S)N1CCN(S(=O)(=O)c2cc(C#N)ccc2Sc2cc(Cl)cc(Cl)c2)CC1` [Compound 101], the Ki was greater than 5 µM.

Compound `Cc1cc(C)cc(Oc2ccc(C#N)cc2S(=O)(=O)N2CCN(C(=S)NC(C)C)CC2)c1` [Compound 103] showed a Ki greater than 5 µM. Regarding `Cc1ccc(C(=O)N2CCN(S(=O)(=O)c3cc(C#N)ccc3Sc3cc(Cl)cc(Cl)c3)CC2)cc1` [Compound 104], the Ki is greater than 5 µM.

Compound `Cc1cccc(C(=O)N2CCN(S(=O)(=O)c3cc(C#N)ccc3Sc3cc(Cl)cc(Cl)c3)CC2)c1` [Compound 105] showed a Ki greater than 5 µM. As to `Cc1ccccc1C(=O)N1CCN(S(=O)(=O)c2cc(C#N)ccc2Sc2cc(Cl)cc(Cl)c2)CC1` [Compound 106], the Ki was greater than 5 µM.

As for `CC(=O)N1CCN(S(=O)(=O)c2cc(C#N)ccc2Oc2cc(C)cc(C)c2)CC1` [Compound 107], the Ki is greater than 5 µM. `Cc1cc(C)cc(Oc2ccc(C#N)cc2S(=O)(=O)N2CCN(C(=O)C(C)C)CC2)c1` [Compound 108] gave a Ki greater than 5 µM. As to `CC(=O)N1CCN(S(=O)(=O)c2cc(C#N)ccc2Oc2cc(Cl)cc(Cl)c2)CC1` [Compound 109], the Ki is no more than 0.05 µM. Compound `CC(C)C(=O)N1CCN(S(=O)(=O)c2cc(C#N)ccc2Oc2cc(Cl)cc(Cl)c2)CC1` [Compound 110] came in with an inhibitory constant (Ki) of no more than 0.05 µM.

Compound `CC(=O)N1CCN(S(=O)(=O)c2cc(C#N)ccc2Sc2cc(Cl)cc(Cl)c2)CC1` [Compound 111] gave an inhibitory constant (Ki) of no more than 0.05 µM. The compound `CC(C)C(=O)N1CCN(S(=O)(=O)c2cc(C#N)ccc2Sc2cc(Cl)cc(Cl)c2)CC1` [Compound 112] gave a Ki greater than 5 µM. Take `N#Cc1ccc(Sc2cc(Cl)cc(Cl)c2)c(S(=O)(=O)N2CCN(C(=O)c3cccc(F)c3)CC2)c1` [Compound 113]: the Ki was greater than 5 µM. `Cc1ccc(C(=O)N2CCN(S(=O)(=O)c3cc(C#N)ccc3Oc3cc(C)cc(C)c3)CC2)cc1` [Compound 114]: the Ki was in the range of 0.5 to 5 µM. Regarding `Cc1ccc(NC(=O)N2CCN(S(=O)(=O)c3cc(C#N)ccc3Oc3cc(C)cc(C)c3)CC2)cc1` [Compound 115], the Ki was greater than 5 µM. Regarding `Cc1cc(C)cc(Oc2ccc(C#N)cc2S(=O)(=O)N2CCN(C(=O)Nc3ccc(C#N)cc3)CC2)c1` [Compound 116], the inhibition constant (Ki) is greater than 5 µM. With `COc1ccc(C(=O)N2CCN(S(=O)(=O)c3cc(C#N)ccc3Oc3cc(C)cc(C)c3)CC2)cc1` [Compound 117] the figure was greater than 5 µM. With `COc1ccc(NC(=O)N2CCN(S(=O)(=O)c3cc(C#N)ccc3Oc3cc(C)cc(C)c3)CC2)cc1` [Compound 118] the figure was greater than 5 µM.

`Cc1cc(C)cc(Oc2ccc(C#N)cc2S(=O)(=O)N2CCN(C(=O)Nc3ccc([N+](=O)[O-])cc3)CC2)c1` [Compound 119]: the Ki was greater than 5 µM. Regarding `CCN(CC)C(=O)N1CCN(S(=O)(=O)c2cc(C#N)ccc2Oc2cc(C)cc(C)c2)CC1` [Compound 120], the inhibition constant Ki was greater than 5 µM. Consider `Cc1cc(C)cc(Oc2ccc(C#N)cc2S(=O)(=O)N2CCN(C(=S)N(C)C)CC2)c1` [Compound 121], for which the Ki was greater than 5 µM. In turn, `N#Cc1ccc(Oc2cc(Cl)cc(Cl)c2)c(S(=O)(=O)N2CCN(C(=O)c3ccco3)CC2)c1` [Compound 122] returned a Ki greater than 5 µM. Compound `N#Cc1ccc(Oc2cc(Cl)cc(Cl)c2)c(S(=O)(=O)N2CCN(C(=O)c3cccs3)CC2)c1` [Compound 123] returned a Ki greater than 5 µM.
